According to US20210255193A1, “LYSINE REACTIVE PROBES AND USES THEREOF” (The Scripps Research Institute, priority 2017, published 2021):

Key:
Assay in all cases: competitive isoTOP-ABPP
Assay type in all cases: binding
Conditions in all cases: 50 uM_231_sol_in vitro
[1] = target: T1, TPMT Thiopurine S-methyltransferase (Homo sapiens, UniProt P51580)
T1 construct: isoTOP-ABPP experiments performed in cell lysates (in vitro); endogenous in cells; host or cells: soluble proteome of human cancer cell lines (MDA-MB-231; Ramos and Jurkat also prepared)
T1 sequence (P51580 1-245): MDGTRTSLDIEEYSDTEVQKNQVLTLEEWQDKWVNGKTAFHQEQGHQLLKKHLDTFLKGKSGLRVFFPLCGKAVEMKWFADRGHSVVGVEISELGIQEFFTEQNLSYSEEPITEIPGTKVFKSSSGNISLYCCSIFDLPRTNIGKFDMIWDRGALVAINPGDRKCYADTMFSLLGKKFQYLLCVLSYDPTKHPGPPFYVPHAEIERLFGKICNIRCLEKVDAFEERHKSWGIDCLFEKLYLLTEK
Method: (§1) In vitro covalent fragment treatment for isoTOP-ABPP. All compounds were made up as solutions in DMSO (100×) and were used at a final concentration of 50 μM for activated esters and 100 μM for guanidinylating agents. For each profiling sample, 0.5 ml of lysate was treated with 5 μl of the 100× compound stock solution or 5 μl of DMSO. Samples were treated with activated esters for
(§2) STP-alkyne labeling and click chemistry. For concentration-dependent reactivity measurements by isoTOP-ABPP, 0.5 ml proteome aliquots were treated at ambient temperature with 1 mM STP-alkyne 1 (5 μl of 100 mM stock in DMSO) and 0.1 mM STP alkyne 1 (5 μl of 10 mM stock in DMSO), respectively. For competitive isoTOP-ABPP, after in vitro fragment treatment (detailed above), the samples were labeled for 1 h at ambient temperature with 0.1 mM STP-alkyne 1 (5 μl of 10 mM stock in DMSO). Samples were conjugated by copper-mediated azide-alkyne cycloaddition (CuAAC) to either the light (1 mM STP-alkyne or fragment treated) or heavy (0.1 mM STP-alkyne or DMSO treated) TEV tags (10 μl of 5 mM stocks in DMSO, final concentration=100 μM) using tris(2-carboxyethyl)phosphine hydrochloride
(§3) R value calculation and processing. The ratios of light and heavy MS1 peaks for each unique peptide were quantified with a CIMAGE software using default parameters (3 MS1 acquisitions per peak and signal to noise threshold set to 2.5). For reactivity measurements by isoTOP-ABPP, the R value was calculated from the ratio of MS1 peak areas, comparing the 1 mM STP alkyne sample (light TEV tag) with the 0.1 mM STP alkyne sample (heavy TEV tag). For competitive isoTOP-ABPP, the R value was calculated from the ratio of MS1 peak areas, comparing the DMSO treated sample (heavy TEV tag) with the compound treated sample (light TEV tag). […] Ratios for unique peptide entries are calculated for each experiment; overlapping peptides with the same modified lysine (for example, different charge states, MudPIT chromatographic steps or tryptic termini) are grouped together and the median ratio is reported as the final ratio (R). The peptide ratios reported by CIMAGE were further filtered to ensure the removal or correction of low-quality ratios in each individual data set. The quality filters applied were the following: removal of half tryptic peptides; for ratios with high standard deviations from the median (90% of the median or above) the lowest ratio was taken instead of the median; removal of peptides with R=20 and only a single MS2 event triggered during the elution of the parent ion; manual annotation of all the peptides with ratios of 20, removing any peptides with low quality elution profiles that remained after the previous curation steps (only done for competitive isoTOP-ABPP).
(§4) Cross-data processing for fragment screening. For compound treated samples, biological replicates of the same condition were averaged, if the standard deviation was below 60% of the mean; otherwise, for lysines with at least one R value <4 for a particular compound, the lowest value of the ratio set was taken. For lysines, where all R values for a particular compound were ≥4, the average was reported. For peptides containing several possible modified lysines, the lysine with the highest number of quantification events was used for analysis and the remaining, redundant peptides were reported as alternative modification sites. Peptides included in the aggregate dataset (those used for further bioinformatics and statistical analyses) were required to have been quantified in 2 experiments for competitive isoTOP-ABPP. Lysines were categorized as liganded, if they had at least one ratio R≥4 (hit fragments). For liganded lysines with R=20 for all liganding events, lysines were required to have been quantified with R=20 in two separate experiments and were further required to have been quantified with R<20 in one additional experiment.

[2] = target: T2, ECH1 Delta(3,5)-Delta(2,4)-dienoyl-CoA isomerase, mitochondrial (Homo sapiens, UniProt Q13011)
T2 construct: isoTOP-ABPP experiments performed in cell lysates (in vitro); endogenous in cells; host or cells: soluble proteome of human cancer cell lines (MDA-MB-231, Ramos, Jurkat)
T2 sequence (Q13011 34-328): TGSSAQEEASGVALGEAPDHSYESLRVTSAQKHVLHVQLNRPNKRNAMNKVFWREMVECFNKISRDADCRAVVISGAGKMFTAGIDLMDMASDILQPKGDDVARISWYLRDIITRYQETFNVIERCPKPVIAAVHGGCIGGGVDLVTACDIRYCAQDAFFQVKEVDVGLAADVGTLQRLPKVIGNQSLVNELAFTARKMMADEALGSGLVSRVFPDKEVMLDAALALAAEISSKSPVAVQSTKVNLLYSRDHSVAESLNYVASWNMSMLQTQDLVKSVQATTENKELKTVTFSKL
Method: as §1, §2, §3, §4

[3] = target: T3, HDHD3 Haloacid dehalogenase-like hydrolase domain-containing protein 3 (Homo sapiens, UniProt Q9BSH5)
T3 construct: isoTOP-ABPP experiments performed in cell lysates (in vitro); endogenous in cells; host or cells: soluble proteome of human cancer cell lines (MDA-MB-231; Ramos and Jurkat also prepared)
T3 sequence (Q9BSH5 1-251): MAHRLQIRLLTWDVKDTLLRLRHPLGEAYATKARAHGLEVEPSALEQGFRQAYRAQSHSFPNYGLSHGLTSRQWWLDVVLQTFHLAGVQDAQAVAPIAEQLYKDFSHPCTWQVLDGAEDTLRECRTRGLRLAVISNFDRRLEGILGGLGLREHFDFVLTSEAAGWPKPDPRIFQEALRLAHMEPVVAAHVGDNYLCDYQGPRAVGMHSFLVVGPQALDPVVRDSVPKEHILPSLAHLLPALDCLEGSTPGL
Method: as §1, §2, §3, §4

**Q.** Which results are given for `NC(=O)c1cc(C(F)(F)F)cc(C(F)(F)F)c1` [fragment 51, reference compound]?
**A.** isoTOP-ABPP ratio, lysine P51580_K32 [1]: 0.8; isoTOP-ABPP ratio, lysine Q13011_K112 [2]: 1.0; isoTOP-ABPP ratio, lysine Q9BSH5_K15 [3]: 0.8
